This is an account of results in patent publication US7256201B2, “Selective estrogen receptor-β ligands” (AstraZeneca AB, priority 2000, dated 2007).

For one assay, the target named is T1, βER (Homo sapiens, UniProt Q92731).
T1 construct: expressed in transfected cells; host or cells: 293 cells (Human Embryonic Kidney, ATCC CRL-1573)
The assay can be described thus: Cell-based assay for ER transcriptional activity (ERE β-gal reporter), βER-transfected 293 cells. Particulars: for EC50 / ERE β-ER Max: 293 cells transfected with βER and ERE reporter; for ERE β-ER Max: maximal response, unit assumed; for ERE Selectivity: ratio α-ER EC50 / β-ER EC50. As for the experimental part: (§1) ERs are ligand-dependent transcription factors that bind the promoter regions of genes at a consensus DNA sequence called the estrogen responsive element (ERE). The ER agonist or antagonist activity of a drug was determined by measuring the amount of reporter enzyme activity expressed from a plasmid under the control of an estrogen-responsive element when cells transiently transfected with ER and the reporter plasmid were exposed to drug. These experiments were conducted according to the following methods.
(§2) Estrogen Receptors alpha (αER, Gen Bank accession #M12674), and beta (βER, Gen Bank #X99101 were cloned into the expression vector pSG5 (Stratagene). A trimer of the vitellogenin-gene estrogen response element (vitERE) was synthesized as an oligonucleotide and attached to a beta-globin basal promoter in a construct named pERE3 gal. This response element and promoter were removed from pERE3 gal by digestion with the endonucleases SpeI (filled with Klenow fragment) and HindIII. This blunt/Hind III fragment was cloned into the β-galactosidase (β-gal) enhancer reporter plasmid (pBGALenh, Stratagene). αER and βER plasmids were purified using a the Endo Free Maxi Kit (Qiagen), and the DNA concentration and purity (A260/280 ratio) were determined spectrophotometrically (Pharmacia). Only DNA with A260/280 ratio of 1.8 and a concentration of >1 ug/uL was used for transfections.
(§3) All Transfections are performed in 293 cells (Human Embryonic Kidney cells ATCC #CRL-1573). Cells are grown in DMEM supplemented with 10% FBS, glutamine, sodium pyruvate and penicilin/streptomycin. Cells are grown to 70% confluency and split 1:4.
(§4) • 1. 293 cells are split the night before onto collagen I-coated 150 mm tissue-culture plates (Biocoat, Becton Dickinson #354551) at a density of 60-70% in DMEM Mediatech 17-205-CV) 10% charcoal-stripped FBS (biocell #6201-31). Approximately 1×10^7 cells/plate will yield 70% confluency. • 2. The next morning, 1 hour prior to transfection, the media is changed to fresh DMEM 10% FBS stripped and supplements. • 3. Transfections are performed using the Profection Kit (Promega #E1200). This kit is based on the calcium-phosphate-mediated transfection technique. Reagents are added in sterile polystyrene tubes in the following order:
(§5) Solution A • 15 μg αER or βER • 45 μg Reporter (pBGALenh or ERE3) • 1.5 mL Sterile Water • 186 μL CaCl2 • *Mix gently
(§6) Solution B • 1.5 mL 2× Hank's Buffered Salt Solution • 4. Using a vortex set on low, add solution A to solution B dropwise. The resulting solution should become milky in color. It is important to achieve thorough mixing. The solution is allowed to settle for 30 minutes, then vortexed before adding the solution to cells. • 5. Add the mixture to 150 mm plates dropwise. Mix well by rocking plates back and forth and side to side gently. After an hour, a very fine precipitate should be seen floating on and above cells under 20× magnification. If this precipitate is not observed, the transfection will not be effective. Incubate the cells for 12 hours. Receptor Stimulation: • 1. The day after transfection, cells are washed 2× with calcium- and magnesium-free Mg free PBS containing 1 mM EGTA (pH 7.6). Cells are trypsinized for 2 min with 3 mL of trypsin-EDTA. Trypsin is neutralized with DMEM 10% FCS. Cells are pelleted at 1000×g for 5 min. The cell pellet is then resuspended in 5 mL DMEM plus 2% phenol-red-free FCS supplemented with glutamine, pyruvate, and Penn/Strep. • 2. 50 μl of the resulting cell suspension is plated into each well of 96-well tissue culture dishes (Biocoat B&D #354407) using a multi-channel pipettor. The dishes have been previously loaded with 50 μL of DMSO-solubilized test compounds at twice the test concentration in DMEM. Data reported are either n=4 wells (single poke) and n=2 wells (9-point concentration-response curves). • 3. Cells are incubated overnight at 37° C. in the selected compounds. Reporter Assay: • 1. […]

For a further assay, the target named is T2, human recombinant ERβ (Homo sapiens, UniProt Q92731).
T2 construct: purchased PanVera (Madison, Wis.)
The assay can be described thus: Fluorescence polarization estrogen receptor (ERFP) binding assay, ERβ. Particulars: for Ki: competition with Fluormone ES2, IC50 converted to Ki by Kenakin formula, read-out: FP β-ER Ki; for FP Selectivity: ratio α-ER Ki / β-ER Ki. As for the experimental part:
(§7) A homogeneous mix-and-measure estrogen receptor (ER) binding assay which utilizes fluorescence polarization (FP) technology is used to identify compounds with affinity for the estrogen receptor. Purchased from PanVera (Madison, Wis.), assay reagents include purified human recombinant ERα, human recombinant ERβ, ES2 screening buffer (100 mM potassium phosphate, pH 7.4, 100 μg/mL bovine gamma globulin), and Fluormone™ ES2.
(§8) For competition binding experiments, dilutions of test compounds are prepared at 2× the final assay concentration in 0.2% DMSO in ES2 Screening buffer on TECAN Genosys, and 25 μL compound/well is dispensed into black Costar ½ volume 96-well plates. Dependent upon a lot specific Kd determination, 10-40 nM ERα or 10-40 nM ERβ and 1 nM Fluormone ES2 are then added to these plates in a final assay volume of 50 μL/well. Plates are gently shaken for at least 5 minutes to mix and incubated for at least 1 hr 45 minutes to achieve equilibrium. (Reaction mixtures are stable for up to 5 hours). After centrifugation to remove air bubbles, plates are read on an LJL Analyst or Acquest equipped with Criterion software at the following settings: Fluorescence Polarization Mode; Static Polarizer on Excitation Side; Dynamic Polarizer on Emission Side; Excitation λ=485×/−5 10 nm; Emission λ=520+/−12.5 nm.
(§9) Polarized fluorescence intensity values are collected and subsequently converted electronically to millipolarization (mp) values. Following data reduction and normalization with Excel and/or Prism software, % Ctrl values at the various test concentrations are used to obtain IC50 values via non-linear regression analysis of a four-parameter logistic equation.
(§10) Because ligand depletion is a consideration in this assay (˜40-60% input ES2 is bound in the assay), IC50 values are converted to Ki values through application of the Kenakin formula, as outlined in the reference below, rather than via the more routinely-used Cheng-Prusoff formula.
For orientation: In fluorescence polarisation assays a small probe gives low polarisation when free and higher when bound to something large.

The target of a further assay is T3, human recombinant ERα (Homo sapiens, UniProt P03372).
T3 construct: purchased PanVera (Madison, Wis.)
T3 sequence (P03372 1-595): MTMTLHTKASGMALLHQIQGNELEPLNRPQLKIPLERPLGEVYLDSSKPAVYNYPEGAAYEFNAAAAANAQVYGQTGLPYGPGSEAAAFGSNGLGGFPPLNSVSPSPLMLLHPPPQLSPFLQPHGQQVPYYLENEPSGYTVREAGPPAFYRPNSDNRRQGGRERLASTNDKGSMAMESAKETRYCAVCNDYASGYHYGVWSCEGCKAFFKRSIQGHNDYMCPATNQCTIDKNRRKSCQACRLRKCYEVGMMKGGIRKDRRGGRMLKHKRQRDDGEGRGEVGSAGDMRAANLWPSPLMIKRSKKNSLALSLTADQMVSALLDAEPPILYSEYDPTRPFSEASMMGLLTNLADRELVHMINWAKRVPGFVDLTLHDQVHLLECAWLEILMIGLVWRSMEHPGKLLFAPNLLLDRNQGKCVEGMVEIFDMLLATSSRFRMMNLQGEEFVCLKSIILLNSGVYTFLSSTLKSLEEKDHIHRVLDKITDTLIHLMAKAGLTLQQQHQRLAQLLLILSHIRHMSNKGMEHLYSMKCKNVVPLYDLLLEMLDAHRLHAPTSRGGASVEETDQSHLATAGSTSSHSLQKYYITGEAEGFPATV
The assay can be described thus: Fluorescence polarization estrogen receptor (ERFP) binding assay, ERα. Particulars: competition with Fluormone ES2; IC50 converted to Ki by Kenakin formula; read-out: FP α-ER Ki. As for the experimental part: as §7, §8, §9, §10

Another assay deals with T4, αER (Homo sapiens, UniProt P03372).
T4 construct: expressed in transfected cells; host or cells: 293 cells (Human Embryonic Kidney, ATCC CRL-1573)
T4 sequence (P03372 1-595): T3 sequence (P03372 1-595)
The assay can be described thus: Cell-based assay for ER transcriptional activity (ERE β-gal reporter), αER-transfected 293 cells. To be noted: 293 cells transfected with αER and ERE reporter; for ERE α-ER Max: maximal response, unit assumed; for EC50: read-out: ERE α-ER EC50. On the procedure: as §1, §2, §3, §4, §5, §6

T1 sequence (Q92731 54-530 limits assumed): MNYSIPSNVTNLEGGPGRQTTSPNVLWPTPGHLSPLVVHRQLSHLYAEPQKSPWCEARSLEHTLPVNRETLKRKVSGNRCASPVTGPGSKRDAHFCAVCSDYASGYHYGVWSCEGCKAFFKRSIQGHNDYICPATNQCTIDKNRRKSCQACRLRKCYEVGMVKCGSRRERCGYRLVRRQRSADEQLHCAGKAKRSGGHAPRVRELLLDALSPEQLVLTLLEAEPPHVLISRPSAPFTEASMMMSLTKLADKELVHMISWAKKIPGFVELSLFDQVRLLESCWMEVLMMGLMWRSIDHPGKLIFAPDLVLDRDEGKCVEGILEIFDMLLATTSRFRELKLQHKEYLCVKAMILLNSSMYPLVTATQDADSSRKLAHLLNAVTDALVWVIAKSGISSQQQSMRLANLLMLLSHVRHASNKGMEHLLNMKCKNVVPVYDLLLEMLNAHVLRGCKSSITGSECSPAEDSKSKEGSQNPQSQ
T2 sequence (Q92731 whole entry): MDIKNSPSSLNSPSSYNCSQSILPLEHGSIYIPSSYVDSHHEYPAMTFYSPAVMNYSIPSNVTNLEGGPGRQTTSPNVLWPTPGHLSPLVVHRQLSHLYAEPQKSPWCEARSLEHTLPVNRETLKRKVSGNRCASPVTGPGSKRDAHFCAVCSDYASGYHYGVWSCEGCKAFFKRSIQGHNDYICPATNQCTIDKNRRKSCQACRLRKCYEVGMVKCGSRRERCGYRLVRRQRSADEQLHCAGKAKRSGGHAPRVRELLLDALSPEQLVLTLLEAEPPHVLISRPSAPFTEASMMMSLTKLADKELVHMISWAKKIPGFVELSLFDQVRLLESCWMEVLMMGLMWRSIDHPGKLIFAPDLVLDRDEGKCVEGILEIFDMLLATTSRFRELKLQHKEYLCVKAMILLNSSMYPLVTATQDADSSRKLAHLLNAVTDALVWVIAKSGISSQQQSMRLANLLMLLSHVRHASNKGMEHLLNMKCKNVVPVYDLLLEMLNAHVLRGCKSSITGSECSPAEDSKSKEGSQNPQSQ

As for `Oc1ccc(N2CCc3cc(O)ccc3C2c2ccccc2)cc1` (centres unmarked) [Example 6, 2-(4Hydroxyphenyl)-1-phenyl-1,2,3,4-tetrahydroisoquinolin-6-ol], at βER, it took 7.6 nM to reach a half-maximal effect (EC50), the ERE β-ER Max is 105% and the “ERE Selectivity” value was 0.1. Besides, on human recombinant ERβ, the Ki – broadly, a dissociation constant, usually derived from enzyme kinetics or from competition with a known ligand – amounted to 10 nM and the “FP Selectivity” value is 0.9. The Ki at human recombinant ERα was 10 nM. Moreover, at αER, the ERE α-ER Max came out at 100% and the EC50 (commonly the concentration that produces a half-maximal response) was 0.6 nM.
In the case of `Oc1ccc(N2CCc3cc(O)ccc3C2c2ccc(Cl)cc2Cl)cc1` (centres unmarked) [Example 10, 1-(2,4-Dichlorophenyl)-2-(4-hydroxyphenyl)-1,2,3,4-tetrahydroisoquinolin-6-ol], the ERE β-ER Max at βER was 44%. Also, on human recombinant ERβ, the inhibition constant (Ki) is 7 nM and the “FP Selectivity” value is given as 1.6. For the same molecule, the Ki on human recombinant ERα turned out to be 11 nM. This molecule also gave an ERE α-ER Max on αER of 95%.
Regarding `Cc1ccccc1C1c2ccc(O)cc2CCN1c1ccc(O)cc1` (centres unmarked) [Example 12, 2-(4-Hydroxyphenyl)-1-o-tolyl-1,2,3,4-tetrahydroisoquinolin-6-ol], the ERE β-ER Max on βER came out at 71%. In addition, the Ki on human recombinant ERβ is 8 nM; at human recombinant ERα it was 16 nM. Further, on human recombinant ERβ, the “FP Selectivity” value was 2.2. At αER, the ERE α-ER Max stood at 113%.
For the molecule `Oc1ccc2c(c1)CCN(c1ccc(Cl)cc1Cl)C2` [Example 13, 2-(2,4-Dichloro-phenyl)-1,2,3,4-tetrahydro-isoquinolin-6-ol], the ERE β-ER Max at βER was 69%. Further, on human recombinant ERβ, the Ki is 32 nM and the “FP Selectivity” value amounted to 1.8. In addition, on human recombinant ERα, the inhibition constant (Ki) amounted to 55 nM. In addition, at αER, the ERE α-ER Max is 89%.
With `CC1c2ccc(O)cc2CCN1c1ccc(O)cc1` (centres unmarked) [Example 14, 2-(4-Hydroxy-phenyl)-1-methyl-1,2,3,4-tetrahydro-isoquinolin-6-ol], on βER, the EC50 was determined as 143 nM, the ERE β-ER Max is 44% and the “ERE Selectivity” value came out at 7.0. On human recombinant ERβ, the inhibition constant Ki amounted to 45 nM and the “FP Selectivity” value is on record as 6.8. For the same molecule, on human recombinant ERα, the inhibition constant (Ki) came out at 307 nM. At αER, the ERE α-ER Max turned out to be 42% and the 50% effective concentration (EC50) is 1000 nM.
As to `CCC1c2ccc(O)cc2CCN1c1ccc(O)cc1` (centres unmarked) [Example 15, 1-Ethyl-2-(4-hydroxy-phenyl)-1,2,3,4-tetrahydro-isoquinolin-6-ol], on βER, the midpoint of the response, the EC50, lay at 23 nM; the ERE β-ER Max came out at 51%; the “ERE Selectivity” value was 43. In addition, on human recombinant ERβ, the inhibition constant Ki is 18 nM and the “FP Selectivity” value amounted to 3.3. On human recombinant ERα, the Ki amounted to 59 nM. Moreover, at αER, the ERE α-ER Max came out at 37% and the EC50 came out at 1000 nM.
For `CC1c2ccc(O)cc2CCN1c1cccc(O)c1` (centres unmarked) [Example 17, 2-(3-Hydroxy-phenyl)-1-methyl-1,2,3,4-tetrahydro-isoquinolin-6-ol], on βER, a half-maximal effect (EC50) was put at 49 nM, the ERE β-ER Max amounted to 72% and the “ERE Selectivity” value came to 0.1. On human recombinant ERβ, the Ki was 34 nM and the “FP Selectivity” value was 3.3. The Ki on human recombinant ERα was found to be 110 nM. Further, on αER, the ERE α-ER Max is 87% and the EC50 worked out at 2.5 nM.
On to `Cc1ccc(O)cc1N1CCc2cc(O)ccc2C1C` (centres unmarked) [Example 18, 2-(5-Hydroxy-2-methyl-phenyl)-1-methyl-1,2,3,4-tetrahydro-isoquinolin-6-ol], for which, at βER, it took 6.1 nM to reach a half-maximal effect (EC50), the ERE β-ER Max was found to be 117% and the “ERE Selectivity” value was 4.0. Moreover, on human recombinant ERβ, the Ki amounted to 4.5 nM and the “FP Selectivity” value was found to be 2.1. Further, the Ki at human recombinant ERα stood at 9 nM. At αER, the ERE α-ER Max is 85% and the concentration for a half-maximal effect (EC50) was 24.6 nM.
On to `CCC1c2ccc(O)cc2CCN1c1ccc(O)c(Cl)c1` (centres unmarked) [Example 19, 2-(3-Chloro-4-hydroxy-phenyl)-1-ethyl-1,2,3,4-tetrahydro-isoquinolin-6-ol], for which, at βER, the concentration giving a half-maximal response (EC50) is 209 nM, the ERE β-ER Max came to 41% and the “ERE Selectivity” value is on record as 0.1. Besides, at human recombinant ERβ, the Ki amounted to 24.4 nM and the “FP Selectivity” value is 3.0. Moreover, the Ki at human recombinant ERα came out at 72 nM. Further, at αER, the ERE α-ER Max came out at 66% and the EC50 amounted to 16.8 nM.
On to `Cc1ccc(N2CCc3cc(O)ccc3C2c2ccccc2)cc1O` (centres unmarked) [Example 20, 2-(3-Hydroxy-4-methyl-phenyl)-1-phenyl-1,2,3,4-tetrahydro-isoquinolin-6-ol], for which, at βER, the midpoint of the response, the EC50, lay at 0.4 nM; the ERE β-ER Max was found to be 85%; the “ERE Selectivity” value was determined as 3.3. Further, on human recombinant ERβ, the inhibitory constant (Ki) was 1.2 nM and the “FP Selectivity” value came to 2.5. In addition, the inhibition constant (Ki) on human recombinant ERα came to 3 nM. In addition, at αER, the ERE α-ER Max came out at 75% and the concentration giving a half-maximal response (EC50) was 1.2 nM.
